Data set [1] concerns KB. As to the kind of experiment: Cytotoxicity against Homo sapiens (human) KB cells by neutral red staining. Type of data set: functional, cell-based.
In the next data set the test system is LLC-PK1. As to the kind of experiment: Cytotoxicity against Sus scrofa (pig) LLC-PK1 cells up to 25 uM by neutral red staining. Type of data set: cell-based.
The next data set deals with Vero. Briefly: Cytotoxicity against Chlorocebus aethiops (African green monkey) Vero cells up to 25 uM by neutral red staining. It counts as cell-based. The note with it: chlorocebus sabaeus.
Data set [2] deals with T1, DNA topoisomerase 1 (Homo sapiens) (UniProt P11387).
T1 sequence (whole entry): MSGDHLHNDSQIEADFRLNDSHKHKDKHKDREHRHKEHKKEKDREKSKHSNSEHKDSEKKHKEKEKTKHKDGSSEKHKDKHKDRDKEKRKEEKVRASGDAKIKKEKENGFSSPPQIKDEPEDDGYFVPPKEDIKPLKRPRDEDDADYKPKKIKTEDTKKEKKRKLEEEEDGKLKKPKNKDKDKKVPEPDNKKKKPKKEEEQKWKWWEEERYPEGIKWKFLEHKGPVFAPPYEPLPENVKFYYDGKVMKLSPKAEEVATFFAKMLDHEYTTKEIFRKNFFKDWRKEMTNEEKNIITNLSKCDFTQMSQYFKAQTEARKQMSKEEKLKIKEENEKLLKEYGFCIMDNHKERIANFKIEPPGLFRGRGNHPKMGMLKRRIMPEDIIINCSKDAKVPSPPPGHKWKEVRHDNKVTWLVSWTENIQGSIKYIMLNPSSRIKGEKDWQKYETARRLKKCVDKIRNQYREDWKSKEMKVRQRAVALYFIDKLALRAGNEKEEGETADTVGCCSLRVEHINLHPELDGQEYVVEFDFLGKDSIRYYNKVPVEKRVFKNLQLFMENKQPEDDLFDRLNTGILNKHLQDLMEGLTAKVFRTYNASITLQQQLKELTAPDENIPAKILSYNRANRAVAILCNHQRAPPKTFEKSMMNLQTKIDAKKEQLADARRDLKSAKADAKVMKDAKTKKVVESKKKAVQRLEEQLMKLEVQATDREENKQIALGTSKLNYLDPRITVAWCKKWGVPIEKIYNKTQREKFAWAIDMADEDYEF
As to the kind of experiment: Inhibition of Homo sapiens (human) topoisomerase 1 assessed as relaxation of supercoiled DNA up to 25 uM by agarose gel electrophoresis.

Data set [3] addresses DNA topoisomerase 2-alpha (Homo sapiens, UniProt P11388). As to the kind of experiment: Inhibition of Homo sapiens (human) topoisomerase 2 assessed as decatenation of KDNA by agarose gel electrophoresis.
For data set [4], the target named is T1, DNA topoisomerase 1 (Homo sapiens). As to the kind of experiment: Inhibition of Homo sapiens (human) topoisomerase 1 assessed as production of nicked DNA up to 25 uM by agarose gel electrophoresis.
Data set [5] has as its system SK-MEL. As to the kind of experiment: Cytotoxicity against Homo sapiens (human) SK-MEL cells up to 25 uM by neutral red staining. It counts as functional, cell-based.
Data set [6] deals with BT-549. As to the kind of experiment: Cytotoxicity against Homo sapiens (human) BT549 cells up to 25 uM by neutral red staining. Type of data set: functional, cell-based.
The test system of a further data set is SK-OV-3. As to the kind of experiment: Cytotoxicity against Homo sapiens (human) SKOV3 cells up to 25 uM by neutral red staining. It counts as functional, cell-based.
In data set [7] the test system is KB. Briefly: Cytotoxicity against Homo sapiens (human) KB cells up to 25 uM by neutral red staining. It counts as functional, cell-based.
In data set [8] the test system is BT-549. As to the kind of experiment: Cytotoxicity against Homo sapiens (human) BT549 cells by neutral red staining. It counts as functional, cell-based.
Data set [9] relates to SK-MEL. As to the kind of experiment: Cytotoxicity against Homo sapiens (human) SK-MEL cells by neutral red staining. It counts as functional, cell-based.

This note sets out measurements from ChEMBL document CHEMBL3046266, “Synthesis of curcumin and ethylcurcumin bioconjugates as potential antitumor agents” (Med Chem Res, 2012).

Calls of active or inactive are those of the source. No cut-off for these calls is given here.

DNA topoisomerase 2-alpha, sequence (P11388 whole entry): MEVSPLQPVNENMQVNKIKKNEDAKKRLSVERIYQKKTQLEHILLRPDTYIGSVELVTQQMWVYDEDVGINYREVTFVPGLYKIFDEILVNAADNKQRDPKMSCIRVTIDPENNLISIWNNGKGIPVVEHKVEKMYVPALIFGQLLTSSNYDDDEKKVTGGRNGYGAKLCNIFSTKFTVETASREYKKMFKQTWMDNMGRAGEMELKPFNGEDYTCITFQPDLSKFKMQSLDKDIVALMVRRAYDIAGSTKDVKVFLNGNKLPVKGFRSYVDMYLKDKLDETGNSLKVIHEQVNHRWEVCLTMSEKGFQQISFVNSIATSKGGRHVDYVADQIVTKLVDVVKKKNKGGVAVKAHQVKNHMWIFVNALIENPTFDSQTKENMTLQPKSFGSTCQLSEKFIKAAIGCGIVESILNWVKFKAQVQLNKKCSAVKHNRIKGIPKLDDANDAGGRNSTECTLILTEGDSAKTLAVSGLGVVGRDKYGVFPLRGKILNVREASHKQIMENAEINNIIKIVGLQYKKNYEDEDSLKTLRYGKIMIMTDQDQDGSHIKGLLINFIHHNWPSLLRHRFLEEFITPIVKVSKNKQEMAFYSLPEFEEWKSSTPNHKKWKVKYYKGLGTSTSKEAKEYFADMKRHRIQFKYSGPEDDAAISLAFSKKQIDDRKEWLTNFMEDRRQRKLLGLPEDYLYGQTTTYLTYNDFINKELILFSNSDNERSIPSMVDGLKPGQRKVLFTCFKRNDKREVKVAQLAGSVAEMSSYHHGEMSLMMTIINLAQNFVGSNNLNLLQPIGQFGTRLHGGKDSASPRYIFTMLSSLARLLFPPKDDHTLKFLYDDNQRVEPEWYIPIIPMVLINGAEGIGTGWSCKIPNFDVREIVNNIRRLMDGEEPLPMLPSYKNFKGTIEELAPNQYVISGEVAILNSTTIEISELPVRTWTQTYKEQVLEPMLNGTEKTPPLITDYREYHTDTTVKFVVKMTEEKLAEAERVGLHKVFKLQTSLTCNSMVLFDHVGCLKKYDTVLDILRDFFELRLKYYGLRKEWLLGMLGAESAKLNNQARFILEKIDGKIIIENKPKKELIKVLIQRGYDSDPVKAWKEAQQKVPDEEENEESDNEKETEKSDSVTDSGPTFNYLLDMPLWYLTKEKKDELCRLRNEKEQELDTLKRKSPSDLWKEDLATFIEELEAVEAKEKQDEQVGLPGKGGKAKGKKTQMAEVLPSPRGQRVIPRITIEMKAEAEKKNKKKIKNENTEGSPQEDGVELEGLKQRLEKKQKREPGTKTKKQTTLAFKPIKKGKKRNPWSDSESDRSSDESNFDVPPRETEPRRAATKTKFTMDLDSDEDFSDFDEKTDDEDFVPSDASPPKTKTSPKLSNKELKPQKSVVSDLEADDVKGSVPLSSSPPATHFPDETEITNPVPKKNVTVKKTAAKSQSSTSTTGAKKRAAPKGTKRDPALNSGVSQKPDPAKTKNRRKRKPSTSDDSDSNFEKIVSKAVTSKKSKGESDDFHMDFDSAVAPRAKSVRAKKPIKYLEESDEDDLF

In general, IC50 refers to the concentration that inhibits the measured activity by half. With `CCOc1cc(/C=C/C(=O)CC(=O)/C=C/c2ccc(OC(=O)CCNC34CC5CC(CC(C5)C3)C4)c(OCC)c2)ccc1OC(=O)CCNC12CC3CC(CC(C3)C1)C2`, the half-maximal inhibitory concentration (IC50) amounted to 15 µM in the data set on KB [1] and 2.1 µM in data set [3]. The Activity entry with LLC-PK1 and in the data set with Vero was “Non-toxic” each time. Further, the inhibition entry in [2] and in data set [4] was “inactive” in each case. Besides, the result in the data set with SK-MEL [5], with BT-549 [6] and with SK-OV-3 was inactive.
`CCOc1cc(/C=C/C(=O)CC(=O)/C=C/c2ccc(OC(=O)CNC34CC5CC(CC(C5)C3)C4)c(OCC)c2)ccc1OC(=O)CNC12CC3CC(CC(C3)C1)C2`: the Activity result in the data set with LLC-PK1 and in the data set on Vero was “Non-toxic” in each case. In addition, the inhibition result in [2] and in data set [4] was “inactive” in each case. Moreover, the result in the data set on KB [7], in the data set on SK-MEL [5], in the data set with BT-549 [6] and in the data set on SK-OV-3 was inactive. The IC50 in data set [3] turned out to be 3.4 µM.
On to `COc1cc(/C=C/C(=O)CC(=O)/C=C/c2ccc(OC(=O)CNC34CC5CC(CC(C5)C3)C4)c(OC)c2)ccc1OC(=O)CNC12CC3CC(CC(C3)C1)C2`, for which the IC50 with KB [1] is above 25 µM; in the data set on BT-549 [8] it was 19.4 µM; in data set [3], 4 µM; with SK-MEL [9] it was 15 µM. Moreover, the Activity entry in the data set on LLC-PK1 and with Vero was “Non-toxic” each time. The inhibition entry in data set [2] and in [4] was “inactive” in each case. For the same molecule, the outcome with SK-OV-3 was inactive.
As to `CCOc1cc(/C=C/C(=O)CC(=O)/C=C/c2ccc(OC(=O)c3cccs3)c(OCC)c2)ccc1OC(=O)c1cccs1` [DI-O-(2-THIENOYL)ETHYLCURCUMIN], the Activity result with LLC-PK1 and in the data set on Vero was “Non-toxic” throughout. The inhibition entry in data set [2] and in data set [4] was “inactive” each time. For the same molecule, the result in the data set on KB [7], with SK-MEL [5], in the data set on BT-549 [6] and in the data set on SK-OV-3 was inactive. Besides, the IC50 in [3] was 23 µM.
Take `COc1ccc2nc(NCCC(=O)Oc3ccc(/C=C/C(=O)CC(=O)/C=C/c4ccc(OC(=O)CCNc5nc6ccc(OC)cc6s5)c(OC)c4)cc3OC)sc2c1`: the IC50 in the data set on KB [1] is above 25 µM; in the data set with BT-549 [8], 23.8 µM; in [3] it was 19 µM; in the data set with SK-MEL [9], 23.8 µM. Also, the Activity entry in the data set with LLC-PK1 and in the data set on Vero was “Non-toxic” throughout. In addition, the inhibition result in [2] and in data set [4] was “inactive” in each case. The result in the data set on SK-OV-3 was inactive.
For `COc1cc(/C=C/C(=O)CC(=O)/C=C/c2ccc(OC(=O)CCNC34CC5CC(CC(C5)C3)C4)c(OC)c2)ccc1OC(=O)CCNC12CC3CC(CC(C3)C1)C2`, the IC50 with KB [1] is above 25 µM; in the data set on BT-549 [8] it was 20.5 µM; in data set [3] it was 18 µM; with SK-MEL [9] it was 18.5 µM. Further, the Activity entry in the data set with LLC-PK1 and with Vero was “Non-toxic” each time. The inhibition result in data set [2] and in data set [4] was “inactive” in each case. In addition, the outcome with SK-OV-3 was inactive.
`COc1cc(/C=C/C(=O)CC(=O)/C=C/c2ccc(OC(=O)C34CC5CC(CC(C5)C3)C4)c(OC)c2)ccc1OC(=O)C12CC3CC(CC(C3)C1)C2` [DI-O-ADAMANTOYLCURCUMIN]: the Activity result in the data set on LLC-PK1 and in the data set on Vero was “Non-toxic” in each case. For the same molecule, the inhibition entry in data set [2] and in data set [4] was “inactive” in each case. In addition, the outcome in the data set with KB [7], in the data set on SK-MEL [5], with BT-549 [6] and with SK-OV-3 was inactive. In addition, the 50% inhibitory concentration (IC50) in [3] was determined as 4.5 µM.
In the case of `CCOc1cc(/C=C/C(=O)CC(=O)/C=C/c2ccc(OC(=O)CCl)c(OCC)c2)ccc1OC(=O)CCl` [DI-O-CHLOROACETYLETHYL CURCUMIN], the Activity result in the data set with LLC-PK1 and in the data set on Vero was “Non-toxic” each time. Also, the inhibition result in data set [2] and in data set [4] was “inactive” each time. In addition, the result in the data set on KB [7], with SK-MEL [5], in the data set with BT-549 [6] and in the data set with SK-OV-3 was inactive. In addition, the IC50 in [3] was 12 µM.
Regarding `CCCCCCC(=O)Oc1ccc(/C=C/C(=O)CC(=O)/C=C/c2ccc(OC(=O)CCCCCC)c(OCC)c2)cc1OCC` [DI-O-HEPTANOYLETHYLCURCUMIN], the Activity result in the data set on LLC-PK1 and in the data set on Vero was “Non-toxic” throughout. The inhibition result in data set [2] and in data set [4] was “inactive” each time. Further, the outcome in the data set with KB [7], in the data set on SK-MEL [5], in the data set with BT-549 [6] and with SK-OV-3 was inactive. Moreover, the IC50 in [3] stood at 3 µM.
With `CCOc1cc(/C=C/C(=O)CC(=O)/C=C/c2ccc(OC(=O)CCCl)c(OCC)c2)ccc1OC(=O)CCCl` [DI-O-CHLOROPROPIONYLETHYL CURCUMIN], the Activity entry in the data set with LLC-PK1 and in the data set on Vero was “Non-toxic” each time. For the same molecule, the inhibition result in data set [2] and in [4] was “inactive” in each case. The outcome in the data set with KB [7], in the data set with SK-MEL [5], in the data set on BT-549 [6] and in the data set on SK-OV-3 was inactive. The IC50 in [3] is 20 µM.
Regarding `CCCCCCC(=O)Oc1ccc(/C=C/C(=O)CC(=O)/C=C/c2ccc(OC(=O)CCCCCC)c(OC)c2)cc1OC` [DI-O-HEPTANOYLCURCUMIN], the Activity entry in the data set on LLC-PK1 and in the data set on Vero was “Non-toxic” in each case. Moreover, the inhibition entry in data set [2] and in [4] was “inactive” in each case. Moreover, the outcome with KB [7], in the data set with SK-MEL [5], with BT-549 [6] and in the data set on SK-OV-3 was inactive. For the same molecule, the IC50 in data set [3] came to 2.9 µM.
In the case of `CCOc1cc(/C=C/C(=O)CC(=O)/C=C/c2ccc(O)c(OCC)c2)ccc1O` [ETHYL CURCUMIN], the IC50 with KB [1] was above 25 µM; in the data set on BT-549 [8], 18 µM; in data set [3], 7.5 µM; in the data set on SK-MEL [9], 16 µM. Also, the Activity entry in the data set with LLC-PK1 and with Vero was “Non-toxic” in each case. For the same molecule, the inhibition result in [2] and in [4] was “inactive” in each case. Besides, the outcome in the data set on SK-OV-3 was inactive.
`COc1cc(/C=C/C(=O)CC(=O)/C=C/c2ccc(OC(=O)CCl)c(OC)c2)ccc1OC(=O)CCl` [DI-O-CHLOROACETYLCURCUMIN]: the IC50 with KB [1] was above 25 µM; with BT-549 [8], 10 µM; in [3] it was 20 µM; in the data set with SK-MEL [9] it was 12.5 µM. Moreover, the Activity entry with LLC-PK1 and in the data set on Vero was “Non-toxic” in each case. Further, the inhibition entry in data set [2] and in data set [4] was “inactive” each time. The result with SK-OV-3 was inactive.
With `COc1cc(/C=C/C(=O)CC(=O)/C=C/c2ccc(O)c(OC)c2)ccc1O` [CURCUMIN], the IC50 in the data set with KB [1] was above 25 µM; in the data set on BT-549 [8], 10.5 µM; in data set [3], 15 µM; in the data set on SK-MEL [9] it was 13.8 µM. Besides, the Activity result in the data set with LLC-PK1 and in the data set with Vero was “Non-toxic” each time. Moreover, the inhibition result in data set [2] and in data set [4] was “inactive” each time. The outcome with SK-OV-3 was inactive.
For the molecule `COc1cc(/C=C/C(=O)CC(=O)/C=C/c2ccc(OC(=O)CNCCCl)c(OC)c2)ccc1OC(=O)CNCCCl`, the Activity entry in the data set on LLC-PK1 and in the data set with Vero was “Non-toxic” each time. The inhibition result in data set [2] and in [4] was “inactive” each time. Moreover, the outcome in the data set on KB [7], in the data set on SK-MEL [5], in the data set on BT-549 [6] and in the data set on SK-OV-3 was inactive. In addition, the IC50 in data set [3] is 0.35 µM.
